From US12441734B2, “Ferroptosis inhibitor and use therefor” (JICHI MEDICAL UNIVERSITY, priority 2021, dated 2025)

Assays:
[1] = test system: Leigh syndrome patient cells (LS^ND3); experiment: Test I: suppression of BSO-induced cell death, Leigh syndrome patient cells; assay type: cell-based, human; details: 100 μM BSO alone or coadded with inhibitor (1 μM; GSK872 1-10 μM, v-VAD 1, 10 μM), 48 hours; FIG. 1B, 3B
Text: (§1) In the drawing, the abscissa depicts test compounds, and the ordinate depicts the cell viability (%) of each treated plot when the number of live cells in a control non-supplemented with BSO is defined as 100%.
as §1

[2] = test system: mitochondrial cardiomyopathy patient cells (ME250-1); experiment: Test I: suppression of BSO-induced cell death, mitochondrial cardiomyopathy patient cells; assay type: cell-based, human; details: 50-200 μM BSO alone or coadded with drug; FIG. 5B
[3] = test system: MELAS patient cells (ME169); experiment: Test III: suppression of BSO-induced ferroptosis, MELAS patient cells; assay type: cell-based, human; details: 80 μM BSO coadded with test compound; FIG. 33
Text: (§2) Apomorphine and idebenone approved as a therapeutic drug for Leber's hereditary optic neuropathy in the Europe were used as control drugs.
(§3) In the drawing, A depicts the results obtained using compounds D8, D9, D10, D18, D20, D26, and D36, and B depicts the results obtained using compounds D37, D38, D39, D40, D41, D42, and D43. In the drawing, the abscissa depicts test compounds, and the ordinate depicts the cell viability (%) of each treated plot when the number of live cells in a control non-supplemented with BSO is defined as 100%.

[4] = test system: Leigh syndrome patient cells (KCMC10); experiment: Test III: suppression of BSO-induced ferroptosis, Leigh syndrome patient cells; assay type: cell-based, human; details: for cell death ascribable to ferroptosis induced by BSO: 100 μM BSO coadded with test compound, FIG. 32; for EC50: Homo sapiens, read-out: EC50 (50% effective concentration of the suppressive effect on cell death ascribable to ferroptosis induced by BSO); for EC50 / ferroptosis inhibitory effect (judged from EC50 value): Leigh syndrome patient cells (KCMC10), BSO; for ferroptosis inhibitory effect (judged from EC50 value): Table 3
Text: as §2, §3

[5] = test system: Leigh syndrome patient cells (KCMC10); experiment: Test III: suppression of RSL-3-induced ferroptosis, Leigh syndrome patient cells; assay type: cell-based, human; details: 100 nM RSL-3 coadded with test compound; FIG. 34
Text: as §2
(§4) In the drawing, A depicts the results obtained using compounds D8, D9, D10, D18, D20, D26, and D36, and B depicts the results obtained using compounds D37, D38, D39, D40, D41, D42, and D43. In the drawing, the abscissa depicts test compounds, and the ordinate depicts the cell viability (%) of each treated plot when the number of live cells in a control non-supplemented with RSL-3 is defined as 100%.

SH-SY5Y cells = experiment: Test VI: inhibition of rotenone-induced neuronal death (LDH assay); assay type: cell-based, human; set-up: key: ++: the case where a concentration-dependent inhibitory effect on rotenone-induced cell death was able to be confirmed twice; +: In the third test, the case where the concentration-dependent inhibitory effect was able to be confirmed; ±: the case where no concentration-dependent inhibitory effect was able to be confirmed; −: The case where any inhibitory effect on rotenone-induced cell death was able to be confirmed in none of the two tests; details: rotenone 1 μM, compound 10 nM-10 μM (Apo 0.1 nM-10 μM), 48 hours
Method: After the completion of culture, rotenone-induced cell death was measured using Cytotoxicity LDH Assay Kit-WST (Dojindo Laboratories). […] The test was conducted twice, and the case where a concentration-dependent inhibitory effect on rotenone-induced cell death was able to be confirmed twice was rated as (++). If the inhibitory effect was confirmed in one of the two tests and no inhibitory effect was confirmed in the other test, the third test was conducted. In the third test, the case where the concentration-dependent inhibitory effect was able to be confirmed was rated as (+), and the case where no concentration-dependent inhibitory effect was able to be confirmed was rated as (±). The case where any inhibitory effect on rotenone-induced cell death was able to be confirmed in none of the two tests was rated as (−).

[6] = test system: human liver cancer cell line (Huh7); experiment: Test V: suppression of RSL-3-induced cell death in liver cancer cell system (LDH, MTT); assay type: cell-based; set-up: key to LDH (LDH activity, cell death): relative to control without RSL-3 (= 1); details: for viability at 1 µM: Homo sapiens, Huh-7, read-out: MTT (cell proliferation and cell viability)
Method: The ferroptosis inducer used was RSL-3.
At the stage where 70% confluency was attained, the medium was replaced with the medium for the test, and DMSO or each test compound (final concentration of GSK872: 5 μM, and final concentration of the other compounds: 1 μM) was added to the cells in each well, which were then cultured for 1 hour. Then, the ferroptosis inducer (final concentration: 0.5 μM) was added to the cells in each well, which were then cultured for 24 hours. After the completion of culture, cell death suppressive activity was measured with lactate dehydrogenase (LDH) activity as an index while cell proliferation and cell viability were measured with activity of reducing yellow tetrazolium salt (MTT) into formazan as an index.
The values in the table are relative values when the LDH activity and MTT value of a control non-supplemented with RSL-3 are each defined as 1.

[7] = test system: MELAS patient cells (ME169); experiment: Test III: suppression of RSL-3-induced ferroptosis, MELAS patient cells; assay type: cell-based, human; details: 100 nM RSL-3 coadded with test compound; FIG. 35
Text: as §2, §4

dopamine D2 receptor = dopamine D2 receptor (Homo sapiens (Human), UniProt P14416); experiment: Test IV: dopamine D2 receptor binding activity (GeneBLAzer D2-Gqo5-NEAT-bla CHO-K1 Cell-based Assay); details: for Dopamine D2 receptor binding activity, Activity intensity: CHO-K1 reporter cells, 5 hours
Chain of dopamine D2 receptor (P14416 whole entry): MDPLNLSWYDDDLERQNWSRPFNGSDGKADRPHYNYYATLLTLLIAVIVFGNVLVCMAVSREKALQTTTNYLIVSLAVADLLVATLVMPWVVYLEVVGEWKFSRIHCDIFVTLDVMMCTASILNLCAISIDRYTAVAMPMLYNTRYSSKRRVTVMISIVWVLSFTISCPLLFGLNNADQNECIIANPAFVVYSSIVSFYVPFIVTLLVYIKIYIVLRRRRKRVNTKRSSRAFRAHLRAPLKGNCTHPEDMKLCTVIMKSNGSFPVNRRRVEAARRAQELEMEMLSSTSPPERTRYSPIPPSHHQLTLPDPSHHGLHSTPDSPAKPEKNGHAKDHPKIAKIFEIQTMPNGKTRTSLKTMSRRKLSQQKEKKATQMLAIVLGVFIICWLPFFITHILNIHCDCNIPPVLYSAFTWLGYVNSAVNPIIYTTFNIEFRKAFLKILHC
Method: In this test, the dopamine D2 receptor binding activity of each test compound was measured using GeneBLAzer D2-Gqo5-NEAT-bla CHO-K1 Cell-based Assay (Thermo Fisher Scientific, Inc.). The CHO cells are designed such that a signal transduction pathway is activated by addition of a drug to express a reporter gene (P lactamase). […] Therefore, the binding activity of the test compound can be measured by measuring a blue fluorescence/green fluorescence ratio. The CHO cells were inoculated at 10,000 cells/well to a 384-well plate and cultured for 16 to 20 hours in a CO2 incubator. […] A substrate mix was added to the cells and incubated at room temperature for 2 hours. […] The respective EC50 values of the test compounds were determined from the measured fluorescence ratios using GraphPad Prism 8.

[8] = test system: Leigh syndrome patient cells (LS^ND3); experiment: Test I: suppression of RSL-3-induced cell death, Leigh syndrome patient cells; assay type: cell-based, human; details: 50 nM RSL-3 alone or coadded with inhibitor, 48 hours; FIG. 2B, 4B
Text: (§5) In the drawing, the abscissa depicts test compounds, and the ordinate depicts the cell viability (%) of each treated plot when the number of live cells in a control non-supplemented with RSL-3 is defined as 100%.
as §5

[9] = test system: normal cells (Promo1 cells); experiment: Test I: RSL-3 and test compounds on normal cells; assay type: cell-based, human; details: RSL-3 alone or coadded with inhibitor, 48 hours; FIG. 4A, 8A
Text: as §5, §5, §5

[10] = test system: mitochondrial hepatopathy patient cells (ME263-1); experiment: Test I: suppression of BSO-induced cell death, mitochondrial hepatopathy patient cells; details: 50-200 μM BSO coadded with drug; FIG. 6B
[11] = test system: Kearns-Sayre syndrome (KSS) patient cells (ME130-1); experiment: Test I: suppression of BSO-induced cell death, KSS patient cells; details: BSO coadded with drug; FIG. 7B
[12] = test system: mitochondrial cardiomyopathy patient cells (ME250-1); experiment: Test I: suppression of RSL-3-induced cell death, mitochondrial cardiomyopathy patient cells; assay type: cell-based, human; details: 10-140 nM RSL-3 alone or coadded with drug; FIG. 8B
Text: as §5

[13] = Huh7, test compound 1 μM (GSK872 5 μM) 1 hour, then RSL-3 0.5 μM 24 hours, relative value, control non-supplemented with RSL-3 = 1

| Compound | cell death induced by BSO (cell viability) [1] | cell death ascribable to ferroptosis induced by BSO [3] | cell death ascribable to ferroptosis induced by BSO [4] | EC50 [4] [µM] | cell death ascribable to ferroptosis induced by RSL-3 [5] | viability at 1 µM [6, 13] [%] | LDH (LDH activity, cell death) [6, 13] | cell death ascribable to ferroptosis induced by RSL-3 [7] | dopamine D2 receptor binding activity (in words) (dopamine D2 receptor) | Dopamine D2 receptor binding activity, Activity intensity (dopamine D2 receptor) | other results |
| --- | --- | --- | --- | --- | --- | --- | --- | --- | --- | --- | --- |
| CCCCS(=N)(=O)CCC(N)C(=O)O [BSO, L-buthionine-(S,R)-sulfoximine] | induced |  |  |  |  |  |  |  |  |  | cell death induced by BSO (cell viability) [2]: induced |
| COc1ccc2c(c1OC)C[C@@H]1c3c(cc4c(c3-2)OCO4)CCN1C [D8] |  | markedly suppressed | markedly suppressed | 0.18 | suppressed | 56 | 2.46 | suppressed | no or little | − | ferroptosis inhibitory effect (judged from EC50 value) [4]: particularly high; Inhibitory effect on rotenone-induced cell death (SH-SY5Y cells): ++ |
| CN1CCc2cc3c(c4c2[C@H]1Cc1ccccc1-4)OCO3 [D18] |  | markedly suppressed | markedly suppressed | 0.492 | suppressed |  |  | suppressed | no or little | − |  |
| COc1cc2c(cc1OC)-c1c3c(c(OC)c4c1C(C2)N(C)CC4)OCO3 (centres unmarked) [D20] |  | markedly suppressed | markedly suppressed | 0.798 | suppressed |  |  | suppressed | no or little | − |  |
| COc1cc2c3c(c1O)-c1c(ccc(OC)c1OC)CC3N(C)CC2 (centres unmarked) [D26] |  | markedly suppressed | markedly suppressed | 0.289 | suppressed | 58 | 4.85 | suppressed | no or little | − | Inhibitory effect on rotenone-induced cell death (SH-SY5Y cells): ± |
| CCCCOc1ccc2c(c1O)-c1cccc3c1[C@@H](C2)N(C)CC3.Cl [D36] |  | markedly suppressed | markedly suppressed | 0.123 | suppressed | 81 | 0.91 | suppressed | no or little | − | ferroptosis inhibitory effect (judged from EC50 value) [4]: particularly high; Inhibitory effect on rotenone-induced cell death (SH-SY5Y cells): ++ |
| CC(=O)N(O)CCCCCNC(=O)CCC(=O)N(O)CCCCCNC(=O)CCC(=O)N(O)CCCCCN [DFO, deferoxamine] | suppressed |  |  |  |  |  |  |  |  |  | cell death induced by RSL-3 (cell viability) [8]: the same or similar results |
| CC(C)S(=O)(=O)c1ccc2nccc(Nc3ccc4scnc4c3)c2c1 [GSK872] | not suppressed |  |  |  |  | 38 | 10.84 |  |  |  | cell death (cell viability) in normal cells, RSL-3 [9]: similarly induced; cell death induced by RSL-3 (cell viability) [8]: same or similar tendency as above was more strongly confirmed |
| COC1=C(OC)C(=O)C(CCCCCCCCCCO)=C(C)C1=O [Ide, idebenone] |  |  |  |  |  |  |  |  |  |  | cell death induced by BSO (cell viability) [10]: the same or similar results; cell death induced by BSO (cell viability) [2]: suppressed; cell death induced by BSO (cell viability) [11]: the same or similar results |
| Clc1cccc(CN=C2Nc3ccccc3NC23CCNCC3)c1 [Lip-1, liproxstatin] | suppressed |  |  |  |  |  |  |  |  |  | cell death induced by RSL-3 (cell viability) [8]: the same or similar results |
| COC(=O)c1ccc([C@@H]2c3[nH]c4ccccc4c3C[C@@H](C(=O)OC)N2C(=O)CCl)cc1 [RSL-3, reference compound] |  |  |  |  |  |  | 10.67 |  |  |  | cell death (cell viability) in normal cells, RSL-3 [9]: induced; cell death induced by RSL-3 (cell viability) [12]: induced; cell death induced by RSL-3 (in words) ([6]; Huh7, RSL-3 0.5 μM): induced; MTT (cell proliferation and cell viability) [6, 13]: 0.45 |
